# Reference: ChEMBL document CHEMBL1138077, “Arylpiperazines with N-acylated amino acids as 5-HT1A receptor ligands” (Bioorg Med Chem Lett, 2006)
# Biological target: T1, 5-hydroxytryptamine receptor 1A (Homo sapiens, UniProt P08908)
# T1 sequence (P08908 whole entry): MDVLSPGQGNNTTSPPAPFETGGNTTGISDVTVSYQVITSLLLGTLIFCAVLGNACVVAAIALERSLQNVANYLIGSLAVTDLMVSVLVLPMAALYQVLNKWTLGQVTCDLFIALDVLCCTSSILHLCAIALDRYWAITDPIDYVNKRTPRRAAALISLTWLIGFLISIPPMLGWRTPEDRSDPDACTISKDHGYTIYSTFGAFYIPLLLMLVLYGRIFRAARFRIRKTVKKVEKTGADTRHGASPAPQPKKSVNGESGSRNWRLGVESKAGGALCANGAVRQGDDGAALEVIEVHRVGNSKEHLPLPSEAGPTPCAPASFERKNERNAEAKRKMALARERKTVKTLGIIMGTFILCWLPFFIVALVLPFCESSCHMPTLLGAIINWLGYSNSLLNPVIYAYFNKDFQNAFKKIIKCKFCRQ
# Assay: Affinity for 5HT1A receptor
row,Compound,Ki
1,COc1ccccc1N1CCN(CCCCNC(=O)[C@@H]2CCC(=O)N2C(=O)C2CCCCC2)CC1,17 nM
2,COc1ccccc1N1CCN(CCCCN2C(=O)C[C@H](NC(=O)C3CCCC3)C2=O)CC1,40 nM
3,COc1ccccc1N1CCN(CCCCNC(=O)[C@H](CC(N)=O)NC(=O)CC2CC3CCC2C3)CC1 (some centres undefined),11 nM
4,COc1ccccc1N1CCN(CCCN2C(=O)C[C@H](NC(=O)CC3CC4CCC3C4)C2=O)CC1 (some centres undefined),40 nM
5,COc1ccccc1N1CCN(CCCN2C(=O)C[C@H](NC(=O)C34CC5CC(CC(C5)C3)C4)C2=O)CC1,63 nM
6,COc1ccccc1N1CCN(CCCCN2C(=O)C[C@H](NC(C)=O)C2=O)CC1,69 nM
7,COc1ccccc1N1CCN(CCCCN2C(=O)C[C@@H](NC(=O)C3CCCCC3)C2=O)CC1,17 nM
8,COc1ccccc1N1CCN(CCCCNC(=O)[C@H]2CCCN2C(=O)CC2CC3CCC2C3)CC1 (some centres undefined),17 nM
9,COc1ccccc1N1CCN(CCCN2C(=O)C[C@H](NC(=O)C3CCCCC3)C2=O)CC1,230 nM
10,COc1ccccc1N1CCN(CCCCN2C(=O)C[C@H](NC(=O)C3CCCCC3)C2=O)CC1,29 nM
11,COc1ccccc1N1CCN(CCCCNC(=O)[C@@H]2CCC(=O)N2C(=O)CC2CC3CCC2C3)CC1 (some centres undefined),12 nM
12,COc1ccccc1N1CCN(CCCCNC(=O)[C@@H]2CCCN2C(=O)CC2CC3CCC2C3)CC1 (some centres undefined),12 nM
13,COc1ccccc1N1CCN(CCCCN2C(=O)C[C@H](NC(=O)c3ccccc3)C2=O)CC1,50 nM
14,"COc1ccccc1N1CCN(CCCCN2C(=O)C[C@@H](NC(=O)CC3CC4CCC3C4)C2=O)CC1 (stereo in doubt; 9'{5,5})",17 nM

# Continued by falling Ki, values first:
row,Ki,Compound
1,480 nM,COc1ccccc1N1CCN(CCCN2C(=O)C[C@H](NC(C)=O)C2=O)CC1
2,260 nM,COc1ccccc1N1CCN(CCCN2C(=O)C[C@H](NC(=O)c3ccccc3)C2=O)CC1
3,170 nM,COc1ccccc1N1CCN(CCCN2C(=O)C[C@H](NC(=O)C3CCCC3)C2=O)CC1
4,27 nM,COc1ccccc1N1CCN(CCCCNC(=O)[C@@H]2CCCN2C(=O)C2CCCCC2)CC1
5,25 nM,COc1ccccc1N1CCN(CCCCNC(=O)[C@H]2CCCN2C(=O)C23CC4CC(CC(C4)C2)C3)CC1
6,24 nM,COc1ccccc1N1CCN(CCCCNC(=O)[C@H](CC(N)=O)NC(=O)C2CCCCC2)CC1
7,18 nM,COc1ccccc1N1CCN(CCCCN2C(=O)C[C@H](NC(=O)CC3CC4CCC3C4)C2=O)CC1 (some centres undefined)
8,15 nM,COc1ccccc1N1CCN(CCCCN2C(=O)C[C@H](NC(=O)C34CC5CC(CC(C5)C3)C4)C2=O)CC1
9,9 nM,COc1ccccc1N1CCN(CCCCN2C(=O)C[C@@H](NC(=O)C34CC5CC(CC(C5)C3)C4)C2=O)CC1
10,4 nM,COc1ccccc1N1CCN(CCCCNC(=O)[C@@H]2CCCN2C(=O)C23CC4CC(CC(C4)C2)C3)CC1
